“And” between values parts separate entries of the source, which are not always exact repeats. Equal values may be shown once. Toxic doses and inconclusive results are not listed.

In this experiment the test system is P388 leukemia ip, CD2F1 mice, survival T/C. As to the kind of experiment: NCI In Vivo Anticancer Drug Screen. Data for tumor model P388 Leukemia (intraperitoneal) in CD2F1 (CDF1) mice. The settings on record: endpoint: median survival time, higher = longer survival. The gist of the method: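 Mice carrying the transplanted tumor received test compound or vehicle. Survival was recorded in each group, and the value is the treated-group measurement divided by that of the vehicle-treated control group.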

The mark [1] stands for this setting: dose: 100.0 mg/kg/injection, schedule: Q01DX005 (ip), vehicle: saline with Tween-80.
The mark [2] stands for this setting: dose: 200.0 mg/kg/injection, schedule: Q01DX005 (ip), vehicle: saline with Tween-80.
[3] abbreviates: dose: 50.0 mg/kg/injection, schedule: Q01DX009 (ip), vehicle: saline with Tween-80.
The mark [4] stands for this setting: dose: 100.0 mg/kg/injection, schedule: Q01DX009 (ip), vehicle: saline with Tween-80.
The mark [5] stands for this setting: dose: 50.0 mg/kg/injection, schedule: Q01DX009 (ip), vehicle: Klucel (hydroxypropylcellulose) (HPC).
[6] abbreviates: dose: 100.0 mg/kg/injection, schedule: Q01DX009 (ip), vehicle: Klucel (hydroxypropylcellulose) (HPC).
Where [7] appears, read: dose: 200.0 mg/kg/injection, schedule: Q01DX009 (ip), vehicle: Klucel (hydroxypropylcellulose) (HPC).
[8] abbreviates: dose: 50.0 mg/kg/injection, schedule: Q01DX005 (ip), vehicle: saline with Tween-80.

Turning to `CCCCNP(=O)(N1CC1C)N1CC1C` (centres undefined), the T/C runs as follows: (dose: 8.25 mg/kg/injection, schedule: Q01DX009 (ip), vehicle: saline) 112 % of control; (dose: 12.5 mg/kg/injection, schedule: Q01DX009 (ip), vehicle: saline) 120 % of control; (dose: 25.0 mg/kg/injection, schedule: Q01DX009 (ip), vehicle: saline) 109 % of control; (dose: 50.0 mg/kg/injection, schedule: Q01DX009 (ip), vehicle: saline) 86 % of control.

For `O=[N+]([O-])/C=C/c1c[nH]c2c1ccc1ccccc12`, the T/C by setting is: under setting [1], 86 % of control; under setting [2], 94 % of control.

Take `COc1ccc(C2CC(=O)N(CC(=O)O)C(=O)C2)cc1`: the T/C runs as follows: (dose: 100.0 mg/kg/injection, schedule: Q04DX003 (ip), vehicle: suspension in saline) 103 % of control; (dose: 200.0 mg/kg/injection, schedule: Q04DX003 (ip), vehicle: suspension in saline) 100 % of control; (dose: 400.0 mg/kg/injection, schedule: Q04DX003 (ip), vehicle: suspension in saline) 99 % of control.

Regarding `Cn1ccc(=Nc2ccc(NC(=O)c3ccc(N=c4ccn(C)c5ccc([N+](=O)[O-])cc45)cc3)cc2)cc1`, the T/C reads like this: (dose: 3.13 mg/kg/injection, schedule: Q01DX009 (ip), vehicle: other) 160 % of control; (dose: 6.25 mg/kg/injection, schedule: Q01DX009 (ip), vehicle: other) 188 % of control; (dose: 12.5 mg/kg/injection, schedule: Q01DX009 (ip), vehicle: other) 182 % of control; (dose: 25.0 mg/kg/injection, schedule: Q01DX009 (ip), vehicle: other) 179 % of control and 220 % of control; (dose: 50.0 mg/kg/injection, schedule: Q01DX009 (ip), vehicle: other) 168 % of control; (dose: 100.0 mg/kg/injection, schedule: Q01DX009 (ip), vehicle: other) 97 % of control.

On to `Fc1ccc(F)c(C(Nc2nncs2)Nc2nncs2)c1`, for which the T/C was 110 % of control (dose: 30.0 mg/kg/injection, schedule: Q01DX005 (ip), vehicle: saline with Tween-80); 108 % of control and 119 % of control (dose: 60.0 mg/kg/injection, schedule: Q01DX005 (ip), vehicle: saline with Tween-80).

`C/C=C1\CN2C3CC1C1(CN4c5c(OC)cc(OC)c(OC)c5C56CC7C(COC45O1)C1CC6N7C/C1=C/COC)C2CC31C(=O)Nc2c(OC)cc(OC)c(OC)c21` (centres undefined): the T/C runs as follows: (dose: 1.5 mg/kg/injection, schedule: Q01DX005 (ip), vehicle: Klucel (hydroxypropylcellulose) (HPC)) 97 % of control; (dose: 3.0 mg/kg/injection, schedule: Q01DX005 (ip), vehicle: Klucel (hydroxypropylcellulose) (HPC)) 97 % of control; (dose: 6.0 mg/kg/injection, schedule: Q01DX005 (ip), vehicle: Klucel (hydroxypropylcellulose) (HPC)) 108 % of control; (dose: 12.0 mg/kg/injection, schedule: Q01DX005 (ip), vehicle: Klucel (hydroxypropylcellulose) (HPC)) 96 % of control.

For `C=CCOc1cc(=O)[nH]c2ccccc12`, the T/C reads like this: (dose: 60.0 mg/kg/injection, schedule: Q01DX005 (ip), vehicle: Klucel (hydroxypropylcellulose) (HPC)) 100 % of control; (dose: 120.0 mg/kg/injection, schedule: Q01DX005 (ip), vehicle: Klucel (hydroxypropylcellulose) (HPC)) 97 % of control; (dose: 240.0 mg/kg/injection, schedule: Q01DX005 (ip), vehicle: Klucel (hydroxypropylcellulose) (HPC)) 91 % of control.

Take `C1CCCCCC2OC2CCCC1` (centres undefined): the T/C (dose: 50.0 mg/kg/injection, schedule: Q04DX003 (ip), vehicle: Klucel (hydroxypropylcellulose) (HPC)) was 107 % of control; the T/C (dose: 100.0 mg/kg/injection, schedule: Q04DX003 (ip), vehicle: Klucel (hydroxypropylcellulose) (HPC)) was 112 % of control; the T/C (dose: 200.0 mg/kg/injection, schedule: Q04DX003 (ip), vehicle: Klucel (hydroxypropylcellulose) (HPC)) is 107 % of control.

With `CCOc1ccc(NC(=O)CC(C)O)cc1` (centres undefined), the T/C under setting [3] is 94 % of control; the T/C under setting [4] was 93 % of control; the T/C (dose: 200.0 mg/kg/injection, schedule: Q01DX009 (ip), vehicle: saline with Tween-80) was 96 % of control.

As for `CC1(C)OCC(C2OC3OC(C)(C)OC3C2OP(=O)(N2CC2)N2CC2)O1` (centres undefined), the T/C is, setting by setting: under setting [3], 112 % of control; under setting [4], 105 % of control.

Regarding `CCOC(=O)C1=C(C)NC(=O)NC1c1ccccc1` (centres undefined), the T/C under setting [5] was 100 % of control; the T/C under setting [6] is 107 % of control; the T/C under setting [7] was 113 % of control; the T/C (dose: 400.0 mg/kg/injection, schedule: Q01DX009 (ip), vehicle: Klucel (hydroxypropylcellulose) (HPC)) was 109 % of control.

On to `C=C[P+](c1ccccc1)(c1ccccc1)c1ccccc1`, for which the T/C reads like this: (dose: 0.37 mg/kg/injection, schedule: Q01DX009 (ip), vehicle: saline) 104 % of control; (dose: 0.75 mg/kg/injection, schedule: Q01DX009 (ip), vehicle: saline) 105 % of control; (dose: 1.5 mg/kg/injection, schedule: Q01DX009 (ip), vehicle: saline) 116 % of control.

Turning to `COC(=O)[C@H](C)C1OC(O)C=CC1=O` (some centres undefined), the T/C is 100 % of control (dose: 6.25 mg/kg/injection, schedule: Q01DX001 (ip), vehicle: saline + Tween-80 + alcohol); 108 % of control (dose: 12.5 mg/kg/injection, schedule: Q01DX001 (ip), vehicle: saline + Tween-80 + alcohol); 101 % of control (dose: 25.0 mg/kg/injection, schedule: Q01DX001 (ip), vehicle: saline + Tween-80 + alcohol); 101 % of control (dose: 50.0 mg/kg/injection, schedule: Q01DX001 (ip), vehicle: saline + Tween-80 + alcohol).

`O=C1Nc2ccccc2/C1=N/N=C/c1ccc(Cl)cc1Cl`: the T/C by setting is: under setting [5], 100 % of control; under setting [6], 88 % of control and 90 % of control; under setting [7], 100 % of control and 98 % of control.

With `O=NN(CCF)C(=O)NCCF`, the T/C is, setting by setting: (dose: 0.11 mg/kg/injection, schedule: Q01DX009 (ip), vehicle: saline) 109 % of control; (dose: 0.16 mg/kg/injection, schedule: Q01DX009 (ip), vehicle: saline) 109 % of control; (dose: 0.25 mg/kg/injection, schedule: Q01DX009 (ip), vehicle: saline) 122 % of control; (dose: 2.5 mg/kg/injection, schedule: Q01DX009 (ip), vehicle: saline) 236 % of control.

As for `CCCCNC(=O)C(C)OC(C)=O` (centres undefined), the T/C under setting [8] is 96 % of control, the T/C under setting [1] is 99 % of control and the T/C under setting [2] was 96 % of control.

For the compound `CC1=CC2OC3CC4OC(=O)/C=C/C=C/C(C(C)O)OCCC5(C)OC5C(=O)OCC2(CC1)C4(C)C31CO1` (centres undefined), the T/C runs as follows: (dose: 1.25 mg/kg/injection, schedule: Q01DX005 (ip), vehicle: saline + alcohol) 101 % of control; (dose: 2.5 mg/kg/injection, schedule: Q01DX005 (ip), vehicle: saline + alcohol) 118 % of control.

For the compound `O=c1cc(-c2ccccc2)oc2c1CCCC2`, the T/C by setting is: (dose: 50.0 mg/kg/injection, schedule: Q01DX005 (ip), vehicle: Klucel (hydroxypropylcellulose) (HPC)) 101 % of control; (dose: 100.0 mg/kg/injection, schedule: Q01DX005 (ip), vehicle: Klucel (hydroxypropylcellulose) (HPC)) 97 % of control; (dose: 200.0 mg/kg/injection, schedule: Q01DX005 (ip), vehicle: Klucel (hydroxypropylcellulose) (HPC)) 101 % of control.

For the compound `O=C(O)c1ccc2c3c(ccc(C(=O)O)c13)CC2`, the T/C is 105 % of control (dose: 25.0 mg/kg/injection, schedule: Q01DX009 (ip), vehicle: Klucel (hydroxypropylcellulose) (HPC)); 102 % of control under setting [5]; 99 % of control under setting [6].

As to `CCCNNC(=O)c1ccncc1`, the T/C under setting [8] is 100 % of control, the T/C under setting [1] is 96 % of control and the T/C under setting [2] is 105 % of control.
